Test results reported in BindingDB's records for doi:10.1124/jpet.105.085829 (Duquesne University, 2005).
“And” between values parts separate entries of the source, which are not always exact repeats. Equal entries are not always repeated.

biological target: Sodium-dependent dopamine transporter (Rattus norvegicus, UniProt P23977)
Sequence (P23977 whole entry): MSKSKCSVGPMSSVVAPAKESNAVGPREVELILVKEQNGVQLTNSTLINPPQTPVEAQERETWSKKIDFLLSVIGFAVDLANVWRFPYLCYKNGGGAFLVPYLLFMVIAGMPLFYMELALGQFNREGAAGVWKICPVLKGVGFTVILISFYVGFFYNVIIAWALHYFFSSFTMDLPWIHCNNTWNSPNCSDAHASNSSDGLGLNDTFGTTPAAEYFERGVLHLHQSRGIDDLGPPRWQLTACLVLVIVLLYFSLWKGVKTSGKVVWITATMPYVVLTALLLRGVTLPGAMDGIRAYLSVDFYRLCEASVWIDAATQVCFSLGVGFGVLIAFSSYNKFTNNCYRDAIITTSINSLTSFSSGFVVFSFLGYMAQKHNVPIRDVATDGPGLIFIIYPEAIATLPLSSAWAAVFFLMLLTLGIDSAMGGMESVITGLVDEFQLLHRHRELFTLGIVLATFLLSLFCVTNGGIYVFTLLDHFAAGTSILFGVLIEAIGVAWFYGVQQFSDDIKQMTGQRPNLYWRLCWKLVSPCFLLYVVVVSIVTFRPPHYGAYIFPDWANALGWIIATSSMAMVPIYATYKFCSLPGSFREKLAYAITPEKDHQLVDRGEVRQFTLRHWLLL

Row | SMILES | Ki
1 | CC1CN(CCCn2c3ccccc3c3ccccc32)CC(C)N1 (stereo unspecified) [9-[3-(3,5-dimethylpiperazin-1-yl)propyl]-9H-carbazole] | 643 nM and 180 nM
2 | CN1C2CCC1CC(OC(c1ccccc1)c1ccc(C(F)(F)F)cc1)C2 (stereo unspecified) [8-Methyl-3-[phenyl-(4-trifluoromethyl-phenyl)-methoxy]-8-aza-bicyclo[3.2.1]octane] | 1280 nM and 541 nM
3 | O=CN1C2CCC1CC(OC(c1ccc(F)cc1)c1ccc(F)cc1)C2 (stereo unspecified) [N-CHO-4,4'-diFBZT] | > 10000 nM
4 | COC(=O)[C@@H]1CN(C)CC[C@@H]1c1ccc(Cl)cc1 [4-ARA-127] | 1630 nM and 3300 nM
5 | O[C@]1(c2ccc(Cl)cc2)c2ccccc2C2=NCCN21 [Mazanor] | 31 nM and 13 nM
6 | COC(=O)C1C2CCC(C[C@@H]1OC(=O)c1ccccc1)O2 (stereo partly specified) [8-Oxa-norcocaine] | 9780 nM and 1560 nM
